Results on 3 compounds are retold here after patent publication US20240382417A1, “Compositions Comprising Guaifenesin and Eriodictyol” (SYMRISE AG, priority 2018, published 2024).

Experiment [1] has as its system guaifenesin bitterness. The settings on record: 200 ppm (0.2 mg/ml) HED against 13 mg/ml guaifenesin; cited from earlier work.
The test system of experiment [2] is HGT-1 cells. As to the kind of experiment: guaifenesin-induced acid (proton) secretion in HGT-1 cells. The note with it: for proton secretory activity (log2 transformed ratio of treated vs. untreated cells): mean ± SEM. Type of experiment: cell-based, human. From the text:
Human gastric tumour cell line 1 (HGT-1; Laboisse C. L.; Augeron C.; Couturier-Turpin M. H.; Gespach C.; Cheret A. M.; Potet F., Characterization of a newly established human gastric cancer cell line HGT-1 bearing histamine H2-receptors, Canc. Res., 1982, 42, 1541 to 1548) is a suitable screening tool for detecting the interaction of bitter agents and bitter modulating substances (Liszt, K. I.; Hans, J.; Ley, J. P.; Kock, E.; Somoza, V., Characterization of bitter compounds via modulation of proton secretion in human gastric parietal cells in culture, J. Agric. Food Chem., 2018, 66 (10), 2295-2300.). Therefore, the effect of eriodictyol on guaifenesin-induced acid secretion in the HGT-1 cell line was determined to predict the modulation of guaifenesin-induced bitterness by eriodictyol. To this aim, HGT-1 cells were cultured under standard conditions and passaged at ca. 80% confluence. […] HGT-1 cells were pre-loaded with (acetyloxy) methyl-3-(acetyloxy)-10-(dimethylamino)-3′-oxo-spiro[7H-benzo [c]xanthene-7,1′(3H)-isobenzofuran]-ar′-carboxylate and incubated in 130 mM NaCl 130, 4.7 mM KCl, 1.3 mM CaCl2, 1.2 mM MgSO4, 1.2 mM KH2PO4, 11.7 mM glucose, 10 mM HEPES 10, 20 μM 4,4′-Diisothiocyanatostilbene-2,2′-disulfonic acid disodium and 20 μM 5-(N-Ethyl-N-isopropyl) amiloride at pH 7.4. Fluorescence recordings were performed with an excitation wavelength of 488 nm and monitoring the emission wavelengths of 580 nm and 640 nm, respectively, each with a 20 nm bandwidth. […]
The data in Table 1 are presented as mean±SEM derived from 7 biological replicates and 14 to 21 technical replicates. Outliers were identified using the Nalimov test, statistical significance was tested one-way ANOVA with Tukey's range test for multiple comparisons and Bonferroni correction, establishing the threshold for significance at p<0.0071. Accordingly, data are marked with * (p<0.0071), ** (p<0.0014) or *** (p<0.00014). Control: untreated cells
The data in Table 2 are presented as mean±SEM derived from 7 biological replicates and 14 to 21 technical replicates. Outliers were identified using the Nalimov test, statistical significance was tested one-way ANOVA with Tukey's range test for multiple comparisons and Bonferroni correction, establishing the threshold for significance at p<0.0071. Accordingly, data are marked with * (p<0.0071), ** (p<0.0014) or *** (p<0.00014). Control: untreated cells

In experiment [3] the test system is trained sensory panel. The experiment can be described thus: sensory panel test of guaifenesin-induced bitterness perception (sip and spit, randomized comparison). Format: in vivo, human. The note with it: guaifenesin used in combination with eriodictyol; refers to Table 3. On the procedure: To verify the effect of eriodictyol on guaifenesin-induced bitterness perception, an aqueous solution of 13 g/l guaifenesin (1) was tested against an aqueous solution containing 13 g/l guaifenesin and 20 mg/l eriodictyol (2) or 100 mg/l homoeriodictyol (3). The test was conducted as a randomized comparison test in a trained sensory panel (n=20 to 30) via a sip and spit procedure. The panelists tasted both solutions in a blinded fashion and rated bitterness on a scale of 0 to 100.

Marks after values point to notes of the source that are not given here. Some results are limits rather than exact numbers.

In the case of `COc1cc([C@@H]2CC(=O)c3c(O)cc(O)cc3O2)ccc1O` (stereo in doubt) [homoeriodictyol, (2S)-/(2R)-5,7-Dihydroxy-2-(4-hydroxy-3-methoxyphenyl)-4-chromanone], in experiment [1], the “reduction in guaifenesin bitterness” value is reported as “about 40%”. Moreover, the “proton secretory activity (log2 transformed ratio of treated vs. untreated cells)” value in experiment [2] (10 mM guaifenesin ± 3 μM homoeriodictyol, timepoint 0 min) was −0.2514 ± 0.0260; in experiment [2] (10 mM guaifenesin ± 3 μM homoeriodictyol, timepoint 5 min), −0.1923 ± 0.0304; in experiment [2] (10 mM guaifenesin ± 3 μM homoeriodictyol, timepoint 10 min), −0.2547 ± 0.0320; in experiment [2] (10 mM guaifenesin ± 3 μM homoeriodictyol, timepoint 15 min), −0.2538 ± 0.0317; in experiment [2] (10 mM guaifenesin ± 3 μM homoeriodictyol, timepoint 20 min), −0.2677 ± 0.0264; in experiment [2] (10 mM guaifenesin ± 3 μM homoeriodictyol, timepoint 25 min) it was −0.2472 ± 0.0296. The “proton secretory activity (log2 transformed ratio of treated vs. untreated cells)” value in experiment [2] (10 mM guaifenesin ± 3 μM homoeriodictyol, timepoint 30 min) was −0.2493 ± 0.0300; in experiment [2] (10 mM guaifenesin ± 30 μM homoeriodictyol, timepoint 0 min) it was −0.2845 ± 0.0235; in experiment [2] (10 mM guaifenesin ± 30 μM homoeriodictyol, timepoint 5 min) it was −0.1702 ± 0.0265; in experiment [2] (10 mM guaifenesin ± 30 μM homoeriodictyol, timepoint 10 min), −0.1272 ± 0.0263*; in experiment [2] (10 mM guaifenesin ± 30 μM homoeriodictyol, timepoint 15 min) it was −0.1934 ± 0.0259; in experiment [2] (10 mM guaifenesin ± 30 μM homoeriodictyol, timepoint 20 min), −0.2282 ± 0.0260. In addition, the “proton secretory activity (log2 transformed ratio of treated vs. untreated cells)” value in experiment [2] (10 mM guaifenesin ± 30 μM homoeriodictyol, timepoint 25 min) is on record as −0.1601 ± 0.0206; in experiment [2] (10 mM guaifenesin ± 30 μM homoeriodictyol, timepoint 30 min), −0.2187 ± 0.0244. Moreover, in experiment [2] (co-incubation of 10 mM guaifenesin with 30 μM homoeriodictyol), the “inhibition of proton secretion compared with eriodictyol” value was “did not exhibit such a pronounced inhibition”. The “change in proton secretion compared to 10 mM guaifenesin alone” value in experiment [2] (co-incubation of 10 mM guaifenesin with 30 μM homoeriodictyol, only the time point at 10 min (p<0.0071)) is “significant decrease”.
Take `O=C1CC(c2ccc(O)c(O)c2)Oc2cc(O)cc(O)c21` [eriodictyol, (2S)-/(2R)-2-(3,4-dihydroxyphenyl)-5,7-dihydroxy-4-chromanone]: in experiment [3], the “reduction of bitterness of guaifenesin” value is recorded as at least 35%. For the same compound, the “proton secretory activity (log2 transformed ratio of treated vs. untreated cells)” value in experiment [2] (10 mM guaifenesin + 3 μM eriodictyol, timepoint 0 min) is −0.3389 ± 0.0274; in experiment [2] (10 mM guaifenesin + 3 μM eriodictyol, timepoint 5 min), −0.3351 ± 0.0246; in experiment [2] (10 mM guaifenesin + 3 μM eriodictyol, timepoint 10 min), −0.2874 ± 0.0241; in experiment [2] (10 mM guaifenesin + 3 μM eriodictyol, timepoint 15 min) it was −0.2595 ± 0.0264; in experiment [2] (10 mM guaifenesin + 3 μM eriodictyol, timepoint 20 min), −0.2622 ± 0.0286; in experiment [2] (10 mM guaifenesin + 3 μM eriodictyol, timepoint 25 min), −0.3259 ± 0.0279. Also, the “proton secretory activity (log2 transformed ratio of treated vs. untreated cells)” value is reported as −0.3237 ± 0.0296 in experiment [2] (10 mM guaifenesin + 3 μM eriodictyol, timepoint 30 min); −0.2324 ± 0.0297 in experiment [2] (10 mM guaifenesin + 30 μM eriodictyol, timepoint 0 min); −0.2396 ± 0.0252 in experiment [2] (10 mM guaifenesin + 30 μM eriodictyol, timepoint 5 min); −0.1630 ± 0.0308*** in experiment [2] (10 mM guaifenesin + 30 μM eriodictyol, timepoint 10 min); −0.1472 ± 0.0302** in experiment [2] (10 mM guaifenesin + 30 μM eriodictyol, timepoint 15 min); −0.1496 ± 0.0269** in experiment [2] (10 mM guaifenesin + 30 μM eriodictyol, timepoint 20 min). Also, the “proton secretory activity (log2 transformed ratio of treated vs. untreated cells)” value was −0.1478 ± 0.0283*** in experiment [2] (10 mM guaifenesin + 30 μM eriodictyol, timepoint 25 min) and −0.1886 ± 0.0272* in experiment [2] (10 mM guaifenesin + 30 μM eriodictyol, timepoint 30 min). Moreover, the “change in proton secretory activity of HGT-1 cells compared to 10 mM guaifenesin alone” value in experiment [2] (co-incubation of 10 mM guaifenesin with 30 μM eriodictyol, from 10 min onwards) was “significant decrease”.
Consider `COc1ccccc1OCC(O)CO` (centres unmarked) [guaifenesin, 3-(2-methoxyphenoxy-) 1,2-propanediol], for which the “proton secretory activity (log2 transformed ratio of treated vs. untreated cells)” value in experiment [2] (10 mM guaifenesin alone, Table 1, timepoint 0 min) is −0.3130 ± 0.0306; in experiment [2] (10 mM guaifenesin alone, Table 1, timepoint 5 min), −0.2720 ± 0.0225; in experiment [2] (10 mM guaifenesin alone, Table 1, timepoint 10 min), −0.3283 ± 0.0253; in experiment [2] (10 mM guaifenesin alone, Table 1, timepoint 15 min), −0.2945 ± 0.0277; in experiment [2] (10 mM guaifenesin alone, Table 1, timepoint 20 min) it was −0.2885 ± 0.0266; in experiment [2] (10 mM guaifenesin alone, Table 1, timepoint 25 min), −0.3135 ± 0.0260. The “proton secretory activity (log2 transformed ratio of treated vs. untreated cells)” value in experiment [2] (10 mM guaifenesin alone, Table 1, timepoint 30 min) is on record as −0.3241 ± 0.0280; in experiment [2] (10 mM guaifenesin alone, Table 2, timepoint 0 min) it was −0.2712 ± 0.0190; in experiment [2] (10 mM guaifenesin alone, Table 2, timepoint 5 min), −0.2170 ± 0.0217; in experiment [2] (10 mM guaifenesin alone, Table 2, timepoint 10 min), −0.2543 ± 0.0268; in experiment [2] (10 mM guaifenesin alone, Table 2, timepoint 15 min), −0.2518 ± 0.0274; in experiment [2] (10 mM guaifenesin alone, Table 2, timepoint 20 min) it was −0.2081 ± 0.0243. The “proton secretory activity (log2 transformed ratio of treated vs. untreated cells)” value in experiment [2] (10 mM guaifenesin alone, Table 2, timepoint 25 min) is −0.2454 ± 0.0265; in experiment [2] (10 mM guaifenesin alone, Table 2, timepoint 30 min), −0.2730 ± 0.0241.
